According to US5455222A, “1-substituted-5-thiomethylthiocyanato-1H-tetrazoles, compositions containing them and their use as antimicrobial and marine antifouling agents” (The Dow Chemical Company, priority 1994, dated 1995):
In brackets after ≈: the same amount, converted by molar mass.

Assays:
[1] = test system: Aureobasidium pullulan (Ap); assay: Minimum inhibitory concentration (MIC), yeast/fungi in malt yeast agar; assay type: cell-based, Aureobasidium pullulan ATCC 16622; details: 30° C., read after 48 hours for yeast and 72 hours for fungi
Procedure: (§1) The minimum inhibitory concentration (MIC) for the compounds listed in Table I is determined for 9 bacteria, using nutrient agar, and 7 yeast and fungi, using malt yeast agar. A one percent solution of the test compound is prepared in a mixture of acetone and water.
(§2) Malt yeast agar is prepared by adding 3 g yeast extract and 45 g malt agar per liter of deionized water. The specific agar is dispensed in 30 mL aliquots into 25×200 mm test tubes, capped and autoclaved for 15 minutes at 115° C.
(§3) The test tubes containing the agar are cooled in a water bath until the temperature of the agar is 48° C. Then, an appropriate amount of the one percent solution of the test compound is added (except in the controls where no compound is added) to the respective test tubes so that the final concentrations are 500, 250, 100, 50, 25, 10, 5, 2.5, 1.0 and zero parts per million of the test compound in the agar, thus having a known concentration of test compound dispersed therein. The contents of the test tubes are then transferred to respective petri plates. After drying for 24 hours, the petri plates containing nutrient agar are inoculated with bacteria and those containing malt yeast agar are inoculated with yeast and fungi.
(§4) The inoculation with the yeast and fungi is accomplished as follows. Cultures of yeast and fungi are incubated for seven days on malt yeast agar at 30° C. These cultures are used to prepare suspensions by the following procedure. A suspension of each organism is prepared by adding 10 mL of sterile saline and 10 microliters of octylphenoxy polyethoxy ethanol to the agar slant of yeast or fungi. The sterile saline/octylphenoxy polyethoxy ethanol solution is then agitated with a sterile swab to suspend the microorganism grown on the slant. Each resulting suspension is diluted into sterile saline (1 part suspension to 9 parts sterile saline). Aliquots of these dilutions are placed in individual wells of Steer's Replicator and petri plates inoculated as previously described. The petri plates are incubated at 30° C. and read after 48 hours for yeast and 72 hours for fungi.
(§5) Table II lists the bacteria, yeast and fungi used in the MIC test described above along with their respective American Type Culture Collection (ATCC) identification numbers.
(§6) In Tables III and IV, the MIC values of the compounds described in Table I as compared to the MIC of a standard commercial preservative (with 1-(3-chloroallyl)-3,5,7-triaza-1-azoniaadamantane chloride as the active agent and referred to in Tables III and IV as "STANDARD I") are set forth for the bacteria organisms and yeast/fungi organisms which are listed in Table II.

marine organisms = assay: Marine antifouling activity, coated test panels exposed to marine environment; details: 6 weeks, scale 10 (completely free of growth) to 0 (completely covered)
Procedure: Test panels are prepared from clear, rigid polyvinyl chloride film that is 0.381×10^-3 m thick and has one textured surface. The test panels are 0.1524 m by 0.1524 m squares that have 0.00635 m holes punched at corners on 0.127 m centers. A 0.102 square template, with a 0.067 m diameter hole at the center, is attached to the center of the textured surface of the test panels.
A candidate marine antifoulant compound (1.0 g) is stirred into a resinous latex binder (9.0 g). A portion of the compound/binder mixture (1.5 g) is added to the center of the test panel and uniformly spread over the circular area inside the template.
Water is added dropwise as needed to properly spread the compound/binder mixture. The template prevents the compound/binder mixture from spreading beyond the uncovered area. […] The template is then removed. The test panel is then allowed to dry for 8 to 12 hours at room temperature.
Two test panels are prepared for each candidate marine antifoulant compound. Two control test panels are also prepared by only treating with the resinous latex binder. One test panel of each candidate marine […] compound is attached over a white background to the topside of an exposure support apparatus. The second test panel is attached over a black background to the underside of the exposure support apparatus. The exposure support apparatus is placed horizontally 0.0254 m under a marine surface with the white background topside facing up.
After being removed from the exposure support apparatus, each test panel is inspected and rated for marine organism growth on both the treated and untreated areas of the test panel. The marine organisms present on the treated and untreated areas are noted. The presence of algae spores and bacterial slime are noted but not included in rating each test panel. The test panels are rated on a scale from 10 (representing completely free of marine organism growth) to 0 (representing completely covered with marine organism growth).
In addition, test panels were prepared using tributyl tin oxide, a known marine antifouling compound.

[2] = test system: Penicillium chrysogenum (Pc); assay: Minimum inhibitory concentration (MIC), yeast/fungi in malt yeast agar; assay type: cell-based, Penicillium chrysogenum ATCC 9480; details: 30° C., 72 hours for fungi
Procedure: as §1, §2, §3, §4, §5, §6

Proteus vulgaris (Pv) = assay: Minimum inhibitory concentration (MIC), bacteria in nutrient agar; assay type: cell-based, Proteus vulgaris ATCC 881; details: 48 hours
Procedure: as §1
(§7) Nutrient agar is prepared at pH 6.8, representing a neutral medium, and at pH 8.2, representing an alkaline medium. The nutrient agars are prepared by adding 23 g of nutrient agar to one liter of deionized water. In addition, the alkaline medium is prepared by adjusting a 0.04M solution of N-[tris-(hydroxymethyl)methyl]glycine buffered deionized water with concentrated sodium hydroxide to a pH of 8.5.
as §3
(§8) The inoculation with bacteria is accomplished by using the following procedure. Twenty-four hour-cultures of each of the bacteria are prepared by incubating the respective bacteria in tubes containing nutrient broth for 24 hours at 30° C. in a shaker. Dilutions of each of the 24 hour-cultures are made so that nine separate suspensions (one for each of the nine test bacteria) are made, each containing 10^8 colony forming units (CFU) per mL of suspension of a particular bacteria. Aliquots of 0.3 mL of each of the bacterial suspensions are used to fill the individual wells of Steer's Replicator. For each microbial suspension, 0.3 mL was used to fill three wells (i.e., three wells of 0.3 mL each) so that for the nine different bacteria, 27 wells are filled. The Steer's Replicator is then used to inoculate both the neutral and alkaline pH nutrient agar petri plates.
(§9) The inoculated petri plates are incubated at 30° C. for 48 hours and then read to determine if the test compound which is incorporated into the agar prevented growth of the respective bacteria.
as §5, §6

Fusarium oxysporum (Fo) = assay: Minimum inhibitory concentration (MIC), yeast/fungi in malt yeast agar; assay type: cell-based, Fusarium oxysporum ATCC 48112; details: 30° C., 72 hours for fungi
Procedure: as §1, §2, §3, §4, §5, §6

[3] = test system: Klebsiella pneumoniae (Kp); assay: Minimum inhibitory concentration (MIC), bacteria in nutrient agar; assay type: cell-based, Klebsiella pneumoniae ATCC 8308; details: 48 hours
Procedure: as §1, §7, §3, §8, §9, §5, §6

[4] = test system: Saccharomyces cerevisiae (Sc); assay: Minimum inhibitory concentration (MIC), yeast/fungi in malt yeast agar; assay type: cell-based, Saccharomyces cerevisiae ATCC 4105; details: 30° C., 48 hours for yeast
Procedure: as §1, §2, §3, §4, §5, §6

Bacillus subtilis (Bs) = assay: Minimum inhibitory concentration (MIC), bacteria in nutrient agar; assay type: cell-based, Bacillus subtilis ATCC 8473; details: 48 hours
Procedure: as §1, §7, §3, §8, §9, §5, §6

Aspergillus niger (An) = assay: Minimum inhibitory concentration (MIC), yeast/fungi in malt yeast agar; assay type: cell-based, Aspergillus niger ATCC 16404; details: 30° C., 72 hours for fungi
Procedure: as §1, §2, §3, §4, §5, §6

[5] = test system: Pseudomonas aeruginosa (Pa); assay: Minimum inhibitory concentration (MIC), bacteria in nutrient agar; assay type: cell-based, Pseudomonas aeruginosa ATCC 10145; details: 48 hours
Procedure: as §1, §7, §3, §8, §9, §5, §6

Candida albicans (Ca) = assay: Minimum inhibitory concentration (MIC), yeast/fungi in malt yeast agar; assay type: cell-based, Candida albicans ATCC 10231; details: 30° C., 48 hours for yeast
Procedure: as §1, §2, §3, §4, §5, §6

Trichoderma viride (Tv) = assay: as above; assay type: cell-based, Trichoderma viride ATCC 8678; details: 30° C., 72 hours for fungi
Procedure: as §1, §2, §3, §4, §5, §6

[6] = test system: Pseudomonas aeruginosa (PRD-10); assay: Minimum inhibitory concentration (MIC), bacteria in nutrient agar; assay type: cell-based, Pseudomonas aeruginosa ATCC 15442; details: 48 hours
Procedure: as §1, §7, §3, §8, §9, §5, §6

[7] = test system: Enterobacter aerogenes (Ea); assay: as above; assay type: cell-based, Enterobacter aerogenes ATCC 13048; details: Klebsiella aerogenes, 48 hours
Procedure: as §1, §7, §3, §8, §9, §5, §6

[8] = test system: Staphylococcus aureus (Sa); assay: as above; assay type: cell-based, Staphylococcus aureus ATCC 6538; details: 48 hours
Procedure: as §1, §7, §3, §8, §9, §5, §6

[9] = test system: Salmonella choleraesuis (Sc); assay: as above; assay type: cell-based, Salmonella choleraesuis ATCC 10708; details: Salmonella enterica, 48 hours
Procedure: as §1, §7, §3, §8, §9, §5, §6

Escherichia coli (Ec) = assay: as above; assay type: cell-based, Escherichia coli ATCC 11229; details: 48 hours
Procedure: as §1, §7, §3, §8, §9, §5, §6

N#CSCSc1nnnn1-c1ccccc1 [Example I, 1-Phenyl-5-thiomethylthiocyanato-1H-tetrazole]
MIC [1]: 2.5 µg/mL (≈ 10 µM)
Marine Antifouling Rating, 6 Week Test, Bottom Panel (marine organisms; bottom panel (black background)): 9
Marine Antifouling Rating, 6 Week Test, Top Panel (marine organisms; top panel (white background)): 9
MIC [2]: 2.5 µg/mL (≈ 10 µM)
MIC (Proteus vulgaris (Pv); nutrient agar pH 6.8, 30° C.): 25 µg/mL (≈ 100 µM)
MIC (Proteus vulgaris (Pv); nutrient agar pH 8.2, 30° C.): 100 µg/mL (≈ 401 µM)
MIC (Fusarium oxysporum (Fo)): 10 µg/mL (≈ 40.1 µM)
MIC ([3]; nutrient agar pH 6.8, 30° C.): 100 µg/mL (≈ 401 µM)
MIC ([3]; nutrient agar pH 8.2, 30° C.): 100 µg/mL (≈ 401 µM)
MIC [4]: 5 µg/mL (≈ 20.1 µM)
MIC (Bacillus subtilis (Bs); nutrient agar pH 6.8, 30° C.): < 10 µg/mL
MIC (Bacillus subtilis (Bs); nutrient agar pH 8.2, 30° C.): 50 µg/mL (≈ 201 µM)
MIC (Aspergillus niger (An)): 5 µg/mL (≈ 20.1 µM)
MIC ([5]; nutrient agar pH 6.8, 30° C.): 100 µg/mL (≈ 401 µM)
MIC ([5]; nutrient agar pH 8.2, 30° C.): 100 µg/mL (≈ 401 µM)
MIC (Candida albicans (Ca)): 25 µg/mL (≈ 100 µM)
MIC (Trichoderma viride (Tv)): 25 µg/mL (≈ 100 µM)
MIC ([6]; nutrient agar pH 6.8, 30° C.): 250 µg/mL (≈ 1000 µM)
MIC ([6]; nutrient agar pH 8.2, 30° C.): 250 µg/mL (≈ 1000 µM)
MIC ([7]; nutrient agar pH 6.8, 30° C.): 250 µg/mL (≈ 1000 µM)
MIC ([7]; nutrient agar pH 8.2, 30° C.): 500 µg/mL (≈ 2010 µM)
MIC ([8]; nutrient agar pH 6.8, 30° C.): 25 µg/mL (≈ 100 µM)
MIC ([8]; nutrient agar pH 8.2, 30° C.): 50 µg/mL (≈ 201 µM)
MIC ([9]; nutrient agar pH 6.8, 30° C.): 100 µg/mL (≈ 401 µM)
MIC ([9]; nutrient agar pH 8.2, 30° C.): 250 µg/mL (≈ 1000 µM)
MIC (Escherichia coli (Ec); nutrient agar pH 6.8, 30° C.): 50 µg/mL (≈ 201 µM)
MIC (Escherichia coli (Ec); nutrient agar pH 8.2, 30° C.): 250 µg/mL (≈ 1000 µM)
